For test [1], the system named is DLD1 NRF2-GOF. The note with it: 72 h; CellTiter-Glo viability. The procedure, abridged: (§1)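 EC50 and drug sensitivity score, the latter a normalised area under the curve, were calculated from logistic dose-response fits. The fits had four parameters and used CellTiter-Glo viability data read on a Pherastar FS reader 72 h after treatment, normalised to vehicle wells and 100-μM positive-control wells. Treated cells were isogenic DLD1 colorectal cancer cells, NRF2 wild-type or CRISPR gain-of-function, exposed in 384-well plates to library compounds at 5 concentrations spanning a 10,000-fold range.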
(In general: Cellular ATP, detected with luciferase, serves as a proxy for viable cell number.)

Test [2] deals with DLD1 NRF2-WT. Particulars: 72 h; CellTiter-Glo viability. The procedure, abridged:
as §1

Test [3] has as its system DLD1 NRF2-GOF. The experiment in a line: TC50 cytotoxicity; higher = less toxic. Particulars: 72 h; CellTox Green cytotoxicity. The procedure, abridged:
(§2)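 TC50 and drug sensitivity score, a normalised area under the curve, were derived by logistic dose-response fits of cytotoxicity. The cells were an isogenic DLD1 colorectal cancer pair, NRF2 wild-type or CRISPR-edited, kept in DMEM with 10% FBS. Compounds were tested in 384-well plates at 5 concentrations across a 10,000-fold range for 72 h. Readings with CellTox Green on a Pherastar FS reader were normalised to vehicle wells and 100-μM positive-control wells.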

Test [4] concerns DLD1 NRF2-WT. The test can be described thus: TC50 cytotoxicity; higher = less toxic. The note with it: 72 h; CellTox Green cytotoxicity. The gist of the method:
as §2

Test [5] concerns DLD1 NRF2-GOF. The test can be described thus: drug sensitivity score (DSS) cytotoxicity (DSS score); higher = more toxic; extreme values may be limits of the assay. Particulars: 72 h; CellTox Green cytotoxicity. The gist of the method: as §2
The subject of test [6] is DLD1 NRF2-WT. The description is as above. The note with it: 72 h; CellTox Green cytotoxicity. The procedure, abridged:
as §2

Test [7] has as its system DLD1 NRF2-GOF. The test can be described thus: drug sensitivity score (DSS) viability (DSS score); higher = more sensitive; extreme values may be limits of the assay. The note with it: 72 h; CellTiter-Glo viability. The gist of the method:
as §1

In test [8] the test system is DLD1 NRF2-WT. The description is as above. The note with it: 72 h; CellTiter-Glo viability. The procedure, abridged:
as §1

Take `CC(C)NC(=O)COc1cccc(-c2nc(Nc3ccc4[nH]ncc4c3)c3ccccc3n2)c1` [KD025]: the EC50 viability with DLD1 NRF2-GOF [1] is 42.9 nM; with DLD1 NRF2-WT [2], 2280 nM. In addition, the TC50 cytotoxicity with DLD1 NRF2-GOF [3] and with DLD1 NRF2-WT [4] was over 5000 nM in each case. The drug sensitivity score in the test with DLD1 NRF2-GOF [5] was 0; in the test on DLD1 NRF2-WT [6] it was 0; with DLD1 NRF2-GOF [7] it was 5.4; in the test with DLD1 NRF2-WT [8], 1.8.
As to `Oc1ccc2c(c1)CC[C@H](c1ccccc1)[C@@H]2c1ccc(OCCN2CCCC2)cc1` [Lasofoxifene], the EC50 viability in the test with DLD1 NRF2-GOF [1] and with DLD1 NRF2-WT [2] was over 1000 nM in each case. Further, the TC50 cytotoxicity with DLD1 NRF2-GOF [3] and in the test with DLD1 NRF2-WT [4] was over 1000 nM throughout. The drug sensitivity score in the test on DLD1 NRF2-GOF [5], in the test on DLD1 NRF2-WT [6], with DLD1 NRF2-GOF [7] and in the test on DLD1 NRF2-WT [8] was 0 throughout.
For `COc1cc2nccc(Oc3ccc(NC(=O)NC4CC4)c(Cl)c3)c2cc1C(N)=O` [Lenvatinib], the EC50 viability with DLD1 NRF2-GOF [1] and in the test with DLD1 NRF2-WT [2] was over 2500 nM each time. Also, the TC50 cytotoxicity in the test on DLD1 NRF2-GOF [3] and with DLD1 NRF2-WT [4] was over 2500 nM each time. In addition, the drug sensitivity score in the test on DLD1 NRF2-GOF [5] was 0; with DLD1 NRF2-WT [6] it was 0; in the test on DLD1 NRF2-GOF [7] it was 0; in the test with DLD1 NRF2-WT [8], 0.1.
As for `Cc1ccc(F)c(NC(=O)Nc2ccc(-c3cccc4[nH]nc(N)c34)cc2)c1` [Linifanib], the EC50 viability in the test with DLD1 NRF2-GOF [1] and in the test with DLD1 NRF2-WT [2] was over 1000 nM throughout. Moreover, the TC50 cytotoxicity in the test with DLD1 NRF2-GOF [3] and in the test on DLD1 NRF2-WT [4] was over 1000 nM throughout. In addition, the drug sensitivity score in the test on DLD1 NRF2-GOF [5] amounted to 0; with DLD1 NRF2-WT [6], 0; in the test on DLD1 NRF2-GOF [7] it was 1.1; in the test on DLD1 NRF2-WT [8], 0.5.
As for `C[C@]1(O)C[C@@H](c2nc(-c3ccc4ccc(-c5ccccc5)nc4c3)c3c(N)nccn32)C1` [Linsitinib], the EC50 viability in the test with DLD1 NRF2-GOF [1] and in the test with DLD1 NRF2-WT [2] was over 10000 nM throughout. The TC50 cytotoxicity in the test with DLD1 NRF2-GOF [3] and in the test with DLD1 NRF2-WT [4] was over 10000 nM in each case. In addition, the drug sensitivity score with DLD1 NRF2-GOF [5], in the test on DLD1 NRF2-WT [6], in the test on DLD1 NRF2-GOF [7] and in the test on DLD1 NRF2-WT [8] was 0 in each case.
In the case of `NC(=O)N1CCC(CC(=O)N2CCC([C@H]3c4ncc(Br)cc4CCc4cc(Cl)cc(Br)c43)CC2)CC1` [Lonafarnib], the EC50 viability is 14200 nM with DLD1 NRF2-GOF [1] and 10500 nM in the test with DLD1 NRF2-WT [2]. Moreover, the TC50 cytotoxicity in the test with DLD1 NRF2-GOF [3] stood at 24200 nM; in the test with DLD1 NRF2-WT [4], 23500 nM. The drug sensitivity score in the test on DLD1 NRF2-GOF [5] is 6.7; in the test with DLD1 NRF2-WT [6], 6.3; in the test with DLD1 NRF2-GOF [7], 9.7; in the test with DLD1 NRF2-WT [8], 11.
In the case of `CNC(=O)c1cccc2cc(Oc3ccnc4cc(OCC5(N)CC5)c(OC)cc34)ccc12` [Lucitanib], the figures for the EC50 viability in the test on DLD1 NRF2-GOF [1] and in the test on DLD1 NRF2-WT [2] were over 10000 nM and 796 nM, respectively. Moreover, the TC50 cytotoxicity with DLD1 NRF2-GOF [3] and in the test on DLD1 NRF2-WT [4] was over 10000 nM in each case. The drug sensitivity score with DLD1 NRF2-GOF [5] amounted to 0; in the test on DLD1 NRF2-WT [6], 0; in the test on DLD1 NRF2-GOF [7] it was 1.3; in the test with DLD1 NRF2-WT [8] it was 2.7.
For the compound `CCNC(=O)c1noc(-c2cc(C(C)C)c(O)cc2O)c1-c1ccc(CN2CCOCC2)cc1` [Luminespib], the EC50 viability with DLD1 NRF2-GOF [1] worked out at 12.8 nM; in the test on DLD1 NRF2-WT [2], 12.1 nM. Further, the TC50 cytotoxicity with DLD1 NRF2-GOF [3] and in the test with DLD1 NRF2-WT [4] was over 1000 nM in each case. Further, the drug sensitivity score was 0 in the test on DLD1 NRF2-GOF [5], 0 with DLD1 NRF2-WT [6], 21.4 in the test on DLD1 NRF2-GOF [7] and 22 in the test on DLD1 NRF2-WT [8].
`O=C(O)CC[C@H]1CC[C@@](c2cc(F)ccc2F)(S(=O)(=O)c2ccc(Cl)cc2)CC1` [MK-0752]: the EC50 viability with DLD1 NRF2-GOF [1] is 1.7 nM; in the test on DLD1 NRF2-WT [2], over 1000 nM. For the same compound, the TC50 cytotoxicity in the test on DLD1 NRF2-GOF [3] and in the test with DLD1 NRF2-WT [4] was over 1000 nM in each case. Also, the drug sensitivity score in the test with DLD1 NRF2-GOF [5] came to 0; in the test with DLD1 NRF2-WT [6] it was 0; in the test with DLD1 NRF2-GOF [7], 9.1; in the test on DLD1 NRF2-WT [8] it was 0.7.
Consider `NC1(c2ccc(-c3nc4ccn5c(=O)[nH]nc5c4cc3-c3ccccc3)cc2)CCC1` [MK-2206], for which the figures for the EC50 viability in the test with DLD1 NRF2-GOF [1] and with DLD1 NRF2-WT [2] were over 1000 nM and 52.2 nM, respectively. Further, the TC50 cytotoxicity in the test on DLD1 NRF2-GOF [3] and in the test on DLD1 NRF2-WT [4] was over 1000 nM in each case. Further, the drug sensitivity score with DLD1 NRF2-GOF [5] was 0; with DLD1 NRF2-WT [6], 0; with DLD1 NRF2-GOF [7], 0.7; with DLD1 NRF2-WT [8], 4.3.
Consider `Cc1ccc(NC(=O)c2ccc(CN3CCN(C)CC3)cc2)cc1Nc1nc(-c2cccnc2)cs1` [Masitinib], for which the EC50 viability in the test with DLD1 NRF2-GOF [1] worked out at 163 nM; in the test with DLD1 NRF2-WT [2], 1800 nM. In addition, the TC50 cytotoxicity with DLD1 NRF2-GOF [3] and with DLD1 NRF2-WT [4] was over 10000 nM throughout. For the same compound, the drug sensitivity score was found to be 0 in the test with DLD1 NRF2-GOF [5], 0 in the test on DLD1 NRF2-WT [6], 14.3 with DLD1 NRF2-GOF [7] and 6.7 with DLD1 NRF2-WT [8].

The values above are taken from the supplement of paper PMC7600603.
